# From patent publication US20230180804A1, “FLAVOR COMPOSITION, AND FOOD AND BEVERAGE” (TAKASAGO INTERNATIONAL CORPORATION, priority 2020, published 2023)
# Assay: Sensory evaluation of p-cresol odor masking in p-cresol-containing lemon dressing
# Conditions: lemon dressing with 500 ppb p-cresol; for p-Cresol Odor Intensity: average score of 9 panelists, scale 0-4
# Description: To a commercially available lemon dressing, p-cresol adjusted to a concentration of 0.1% with 95% ethanol was added to 500 ppb in the lemon dressing. To this p-cresol-containing lemon dressing, l-oxacycloheptadecan-8-en-2-one was added at the concentrations presented in Table 18 to confirm the p-cresol odor intensity (masking effect) and the influence on the citrus flavor of each sample.
# Nine skilled panelists were selected to perform the same sensory evaluation as in Example 1. The results are as in Table 18, presenting the average score of the evaluation results for each panelist.
smiles,measurement,setting,value
"O=C1CCCCCCCCCCCCCCO1 [Pentalide, pentalide]",p-Cresol Odor Intensity,1 ppb added,1.1 points
same,p-Cresol Odor Intensity,1 ppt added,3.6 points
same,p-Cresol Odor Intensity,10 ppb added,0.9 points
same,p-Cresol Odor Intensity,10 ppt added,2.8 points
same,p-Cresol Odor Intensity,100 ppt added,1.9 points
same,"concentration at which the compound masks the p-cresol odor and does not affect the citrus flavor, lower limit",,≥ 10 ppt
same,"concentration at which the compound masks the p-cresol odor and does not affect the citrus flavor, upper limit",,≤ 10 ppb
